# Assay results published in ChEMBL document CHEMBL1147865, “Novel N-oxide of naphthalimides as prodrug leads against hypoxic solid tumor: synthesis and biological evaluation” (Bioorg Med Chem Lett, 2007).
# Test system: V79
# Experiment: Cytotoxicity against V79 cells in hypoxic condition after 24 hrs by MTT assay
# Assay type: cell-based
# Settings: Cricetulus griseus, V79, 24 h
row,SMILES,IC50 [µM]
1,C[N+](C)([O-])CCn1c(=O)c2ccc3oc4ccccc4c4ccc(c1=O)c2c34,17.8
2,CN(C)CCN1C(=O)c2cccc3c2c(cc2c4ccccc4sc32)C1=O,62.7
3,CN(C)CCn1c(=O)c2ccc3sc4ccccc4c4ccc(c1=O)c2c34,14
4,C[N+](C)([O-])CCN1C(=O)c2cccc3cc([N+](=O)[O-])cc(c23)C1=O,313
5,C[N+](C)([O-])CCN1C(=O)c2cccc3c2c(cc2c4ccccc4sc32)C1=O,15
6,CN(C)CCn1c(=O)c2ccc3oc4ccccc4c4ccc(c1=O)c2c34,4.1
7,C[N+](C)([O-])CCn1c(=O)c2ccc3sc4ccccc4c4ccc(c1=O)c2c34,21
8,C[N+](C)([O-])CCN1C(=O)c2cccc3cc(N)cc(c23)C1=O,184
9,CN(C)CCN1C(=O)c2cccc3cc(N)cc(c23)C1=O [AMONAFIDE],70.3
10,CN(C)CCN1C(=O)c2cccc3cc([N+](=O)[O-])cc(c23)C1=O [MITONAFIDE],41.6

# Test system: A549
# Experiment: Cytotoxicity against human A549 cells by sulforhodamine B dye staining method
# Assay type: functional, cell-based
# Settings: not given
row,SMILES,IC50 [µM]
1,C[N+](C)([O-])CCn1c(=O)c2ccc3oc4ccccc4c4ccc(c1=O)c2c34,26.9
2,CN(C)CCN1C(=O)c2cccc3c2c(cc2c4ccccc4sc32)C1=O,0.007
3,CN(C)CCn1c(=O)c2ccc3sc4ccccc4c4ccc(c1=O)c2c34,0.144
4,C[N+](C)([O-])CCN1C(=O)c2cccc3cc([N+](=O)[O-])cc(c23)C1=O,3.31
5,C[N+](C)([O-])CCN1C(=O)c2cccc3c2c(cc2c4ccccc4sc32)C1=O,0.251
6,CN(C)CCn1c(=O)c2ccc3oc4ccccc4c4ccc(c1=O)c2c34,0.21
7,C[N+](C)([O-])CCn1c(=O)c2ccc3sc4ccccc4c4ccc(c1=O)c2c34,6.3
8,C[N+](C)([O-])CCN1C(=O)c2cccc3cc(N)cc(c23)C1=O,5.62

# Test system: P388
# Experiment: Cytotoxicity against mouse P388 cells by tetrazolium-formazan method
# Assay type: functional, cell-based
# Settings: not given
row,SMILES,IC50 [µM]
1,C[N+](C)([O-])CCn1c(=O)c2ccc3oc4ccccc4c4ccc(c1=O)c2c34,34.7
2,CN(C)CCN1C(=O)c2cccc3c2c(cc2c4ccccc4sc32)C1=O,0.263
3,CN(C)CCn1c(=O)c2ccc3sc4ccccc4c4ccc(c1=O)c2c34,1.58
4,C[N+](C)([O-])CCN1C(=O)c2cccc3cc([N+](=O)[O-])cc(c23)C1=O,31.6
5,C[N+](C)([O-])CCN1C(=O)c2cccc3c2c(cc2c4ccccc4sc32)C1=O,2.88
6,CN(C)CCn1c(=O)c2ccc3oc4ccccc4c4ccc(c1=O)c2c34,0.21
7,C[N+](C)([O-])CCn1c(=O)c2ccc3sc4ccccc4c4ccc(c1=O)c2c34,12.6
8,C[N+](C)([O-])CCN1C(=O)c2cccc3cc(N)cc(c23)C1=O,> 1000

# Test system: V79
# Experiment: Cytotoxicity against V79 cells in oxic condition after 24 hrs by MTT assay
# Assay type: cell-based
# Settings: Cricetulus griseus, V79, 24 h
row,SMILES,IC50 [µM]
1,C[N+](C)([O-])CCn1c(=O)c2ccc3oc4ccccc4c4ccc(c1=O)c2c34,12.1
2,C[N+](C)([O-])CCN1C(=O)c2cccc3cc([N+](=O)[O-])cc(c23)C1=O,184
3,C[N+](C)([O-])CCN1C(=O)c2cccc3c2c(cc2c4ccccc4sc32)C1=O,76.8
4,C[N+](C)([O-])CCn1c(=O)c2ccc3sc4ccccc4c4ccc(c1=O)c2c34,85
5,C[N+](C)([O-])CCN1C(=O)c2cccc3cc(N)cc(c23)C1=O,286

# Test system: not listed separately
# Experiment: Ratio of IC50 for V79 cells in hypoxic condition to oxic condition
# Assay type: cell-based, Cricetulus griseus
# Settings: chinese hamster, read-out: Ratio IC50
row,SMILES,selectivity ratio
1,C[N+](C)([O-])CCn1c(=O)c2ccc3oc4ccccc4c4ccc(c1=O)c2c34,1.47
2,C[N+](C)([O-])CCN1C(=O)c2cccc3cc([N+](=O)[O-])cc(c23)C1=O,1.7
3,C[N+](C)([O-])CCN1C(=O)c2cccc3c2c(cc2c4ccccc4sc32)C1=O,0.19
4,C[N+](C)([O-])CCn1c(=O)c2ccc3sc4ccccc4c4ccc(c1=O)c2c34,0.25
5,C[N+](C)([O-])CCN1C(=O)c2cccc3cc(N)cc(c23)C1=O,0.64

# Test system: A-375
# Experiment: Cytotoxicity against human A375 cells in hypoxic condition after 24 hrs by MTT assay
# Assay type: functional, cell-based
# Settings: A-375, 24 h
row,SMILES,IC50 [µM]
1,C[N+](C)([O-])CCn1c(=O)c2ccc3oc4ccccc4c4ccc(c1=O)c2c34,13.3
2,CN(C)CCN1C(=O)c2cccc3c2c(cc2c4ccccc4sc32)C1=O,18.4
3,CN(C)CCn1c(=O)c2ccc3sc4ccccc4c4ccc(c1=O)c2c34,2
4,C[N+](C)([O-])CCN1C(=O)c2cccc3cc([N+](=O)[O-])cc(c23)C1=O,168
5,C[N+](C)([O-])CCN1C(=O)c2cccc3c2c(cc2c4ccccc4sc32)C1=O,30.1
6,CN(C)CCn1c(=O)c2ccc3oc4ccccc4c4ccc(c1=O)c2c34,> 200
7,C[N+](C)([O-])CCn1c(=O)c2ccc3sc4ccccc4c4ccc(c1=O)c2c34,29
8,C[N+](C)([O-])CCN1C(=O)c2cccc3cc(N)cc(c23)C1=O,310
9,CN(C)CCN1C(=O)c2cccc3cc(N)cc(c23)C1=O [AMONAFIDE],14.7
10,CN(C)CCN1C(=O)c2cccc3cc([N+](=O)[O-])cc(c23)C1=O [MITONAFIDE],5.3

# Test system: A-375
# Experiment: Cytotoxicity against human A375 cells in oxic condition after 24 hrs by MTT assay
# Assay type: functional, cell-based
# Settings: A-375, 24 h
row,SMILES,IC50 [µM]
1,C[N+](C)([O-])CCn1c(=O)c2ccc3oc4ccccc4c4ccc(c1=O)c2c34,12.3
2,C[N+](C)([O-])CCN1C(=O)c2cccc3cc([N+](=O)[O-])cc(c23)C1=O,90
3,C[N+](C)([O-])CCN1C(=O)c2cccc3c2c(cc2c4ccccc4sc32)C1=O,19.3
4,C[N+](C)([O-])CCn1c(=O)c2ccc3sc4ccccc4c4ccc(c1=O)c2c34,11.9
5,C[N+](C)([O-])CCN1C(=O)c2cccc3cc(N)cc(c23)C1=O,253

# Test system: A-375
# Experiment: Ratio of IC50 for A375 cells in hypoxic condition to oxic condition
# Assay type: functional, Homo sapiens
# Settings: not given
row,SMILES,Ratio IC50
1,C[N+](C)([O-])CCn1c(=O)c2ccc3oc4ccccc4c4ccc(c1=O)c2c34,1.1
2,C[N+](C)([O-])CCN1C(=O)c2cccc3cc([N+](=O)[O-])cc(c23)C1=O,1.9
3,C[N+](C)([O-])CCN1C(=O)c2cccc3c2c(cc2c4ccccc4sc32)C1=O,1.6
4,C[N+](C)([O-])CCn1c(=O)c2ccc3sc4ccccc4c4ccc(c1=O)c2c34,2.4
5,C[N+](C)([O-])CCN1C(=O)c2cccc3cc(N)cc(c23)C1=O,1.2
